These results are taken from patent US10301354B2, “Antibacterial and fungicidal peptide in which lysine and tryptophan residues are repeated, and use thereof” (priority 2011, dated 2019).

One assay relates to C. albicans CCARM 14001. Briefly: MIC in antibiotic-tolerant fungi. The class given is cell-based. As to conditions: Candida albicans, CCARM14001; RMPI 1640. As to the method: (§1) To measure the fungicidal activity of the peptide prepared in Example 1, the present inventors measured MIC, the minimal concentration that can keep the strain without being divided. For the measurement of fungicidal activity, pathogenic fungi selected from the group consisting of Candida albicans, C. catenulate, C. intermidia, C. rugosa, C. glabrata and C. melibiosica were used. After cultured in optimal media, the strains were diluted at the density of 2×10^5 cells/ml, which were then inoculated on microtitrate plates. The peptide synthesized in Example 1 and the positive control peptide (Melittin) were 2-fold diluted in solution 1 (10 mM sodium phosphate buffer, pH 7.2) and solution 2 (phosphate buffered saline) from 128 μM/well, which were added in the plate, followed by culture at 37° C. for 18˜24 hours. OD620 was measured with a microtitrate plate reader to determine MIC of each strain.
(§2) To measure the fungicidal activity of the peptide of the present invention in antibiotic-tolerant fungi, MIC of the peptide was measured by the same manner as described in Example <2-2> using RMPI 1640 and antibiotic-tolerant Candida albicans (C. albicans CCARM 14001, 14007, 14020).

In the next assay the test system is C. albicans CCARM 14007. Description: MIC in antibiotic-tolerant fungi. In kind it is cell-based. As to conditions: Candida albicans, CCARM14007; RMPI 1640. As to the method:
as §1, §2

Another assay deals with C. albicans CCARM 14020. Description: MIC in antibiotic-tolerant fungi. In kind it is cell-based. The settings on record: Candida albicans, CCARM14020. As to the method: as §1, §2
The next assay deals with L. monocytogenes. In kind it is cell-based, Listeria monocytogenes. The source says: (§3) To measure the antibacterial activity of the peptide prepared in Example 1, the present inventors measured MIC, the minimal concentration that can keep the strain without being divided. For the measurement of antibacterial activity, Gram-positive bacteria selected from the group consisting of Bacillus subtilis, Staphylococcus aureus and Listeria monocytogenes, Gram-negative bacteria selected from the group consisting of Escherichia coli, Psedomonas aeruginosa and Salmonella typhimurium, and antibiotic-tolerant strains selected from the group consisting of E. coli (E. coli CCARM 1229, 1238), Salmonella (S. typhimurium CCARM 8007, 8009, 8013) and Staphylococcus (S. aureus CCARM 3089, 3090, 3108, 3114, 3126) were used. After cultured in optimal media, the strains were diluted at the density of 2×10^5 cells/ml, which were then inoculated on microtitrate plates. The peptide synthesized in Example 1 and the positive control peptide (Melittin) were 2-fold diluted in sodium phosphate buffer and phosphate buffered saline (PBS) from 200 μM/well, which were added in the plate, followed by culture at 37° C. for 18˜24 hours. OD620 was measured with a microtitrate plate reader to determine MIC of each strain. The results are presented in Table 1 (the number in bracket indicates the one obtained from PBS).

The next assay concerns E. coli CCARM 1238. In kind it is cell-based, Escherichia coli.
Description: as §3

In assay [1] the test system is S. typhimurium CCARM 8007. In kind it is cell-based, Salmonella typhimurium.
Description: as §3

For assay [2], the system named is S. typhimurium CCARM 8009. The class given is cell-based, Salmonella typhimurium.
Description: as §3

The test system of assay [3] is S. typhimurium CCARM 8013. In kind it is cell-based, Salmonella typhimurium.
Description: as §3

Another assay deals with S. aureus CCARM 3089. The class given is cell-based, Staphylococcus aureus.
Description: as §3

The next assay has as its system S. aureus CCARM 3090. The class given is cell-based, Staphylococcus aureus.
Description: as §3

Another assay deals with S. aureus CCARM 3108. The class given is cell-based, Staphylococcus aureus.
Description: as §3

The subject of another assay is S. aureus CCARM 3114. The class given is cell-based, Staphylococcus aureus.
Description: as §3

The next assay relates to S. aureus CCARM 3126. Briefly: MIC in antibiotic-tolerant strains. In kind it is cell-based, Staphylococcus aureus.
Description: as §3

≈ marks a conversion by molar mass, not a printed value. Like-named read-outs stand apart in the source and are kept apart here. Where no end group is shown, it is not given here.

`OC(Cn1cncn1)(Cn1cncn1)c1ccc(F)cc1F` [Fluconazole]: the MIC in the assay with C. albicans CCARM 14001, in the assay on C. albicans CCARM 14007 and in the assay on C. albicans CCARM 14020 was > 128 µM in each case.
`CC[C@H](C)[C@H](NC(=O)CN)C(=O)NCC(=O)N[C@@H](C)C(=O)N[C@H](C(=O)N[C@@H](CC(C)C)C(=O)N[C@@H](CCCCN)C(=O)N[C@H](C(=O)N[C@@H](CC(C)C)C(=O)N[C@H](C(=O)N[C@H](C(=O)NCC(=O)N[C@@H](CC(C)C)C(=O)N1CCC[C@H]1C(=O)N[C@@H](C)C(=O)N[C@@H](CC(C)C)C(=O)N[C@H](C(=O)N[C@@H](CO)C(=O)N[C@@H](Cc1c[nH]c2ccccc12)C(=O)N[C@H](C(=O)N[C@@H](CCCCN)C(=O)N[C@@H](CCCNC(=N)N)C(=O)N[C@@H](CCCCN)C(=O)N[C@@H](CCCNC(=N)N)C(=O)N[C@@H](CCC(N)=O)C(=O)N[C@@H](CCC(N)=O)C(N)=O)[C@@H](C)CC)[C@@H](C)CC)[C@@H](C)O)[C@@H](C)O)C(C)C)C(C)C` [Melittin]: the MIC (usually the lowest concentration that inhibits growth of the organism) is “(1.56) μM” with L. monocytogenes (PBS (number in bracket)); 1.56 µM (≈ 4.44 µg/mL) in the assay with L. monocytogenes (sodium phosphate buffer); “(1.56) μM” against E. coli CCARM 1238 (PBS (number in bracket)); 1.56 µM (≈ 4.44 µg/mL) in the assay on E. coli CCARM 1238 (sodium phosphate buffer); “(12.5) μM” in assay [1] (PBS (number in bracket)); 6.25 µM (≈ 17.8 µg/mL) in assay [1] (sodium phosphate buffer). Also, the MIC result is “(12.5) μM” in assay [2] (PBS (number in bracket)); 6.25 µM (≈ 17.8 µg/mL) in assay [2] (sodium phosphate buffer); “(6.25) μM” in [3] (PBS (number in bracket)); 3.12 µM (≈ 8.88 µg/mL) in assay [3] (sodium phosphate buffer); “(1.56) μM” against S. aureus CCARM 3089 (PBS (number in bracket)); 1.56 µM (≈ 4.44 µg/mL) against S. aureus CCARM 3089 (sodium phosphate buffer). Further, the MIC entry with S. aureus CCARM 3090 (PBS (number in bracket)) is “(3.12) μM”; with S. aureus CCARM 3090 (sodium phosphate buffer), 3.12 µM (≈ 8.88 µg/mL); in the assay on S. aureus CCARM 3108 (PBS (number in bracket)) it was “(1.56) μM”; in the assay on S. aureus CCARM 3108 (sodium phosphate buffer), 1.56 µM (≈ 4.44 µg/mL); in the assay on S. aureus CCARM 3114 (PBS (number in bracket)) it was “(3.12) μM”; in the assay on S. aureus CCARM 3114 (sodium phosphate buffer) it was 3.12 µM (≈ 8.88 µg/mL). Besides, the MIC entry in the assay with S. aureus CCARM 3126 (PBS (number in bracket)) is “(1.56) μM”; in the assay with S. aureus CCARM 3126 (sodium phosphate buffer) it was 1.56 µM (≈ 4.44 µg/mL).
In the assay on S. aureus CCARM 3126 (sodium phosphate buffer), KWKWKWKW-NH2 [SEQ. ID. NO: 3] showed a minimal inhibitory concentration (MIC) of 12.5 µM.
